Source: the NIST ThermoML archive (doi:10.1016/j.jct.2004.12.001)

Experiments:
[1] = 303.15 K, Liquid; for mass density: 101 kPa; for speed of sound: 101.33 kPa, Frequency=2 MHz
[2] = xn = mol fraction of the nth substance listed; settings: 303.15 K, 101 kPa, Liquid; for speed of sound: Frequency=2 MHz

c1ccccc1 [benzene]
[1]
Settings	mass density [kg/m3]	speed of sound [m/s]
–	872	1257

c1ccccc1 [benzene] + CC(CC(C)(C)C)CP(=O)(O)CC(C)CC(C)(C)C
[2], x2 = 0
Settings	mass density [kg/m3]	speed of sound [m/s]
–	872	1257

CC(CC(C)(C)C)CP(=O)(O)CC(C)CC(C)(C)C (stereo unspecified) [bis-(2,4,4-trimethylpentyl) phosphinic acid]
[1]
Settings	mass density [kg/m3]	speed of sound [m/s]
–	924.7	1290.4

CC(CC(C)(C)C)CP(=O)(O)CC(C)CC(C)(C)C (stereo unspecified) [bis-(2,4,4-trimethylpentyl) phosphinic acid] + Cc1ccccc1
[2]
Settings	mass density [kg/m3]	speed of sound [m/s]
x1 = 0.0781	875.6	1266.5
x1 = 0.1268	882.5	1266.9
x1 = 0.1843	888	1267.5
x1 = 0.2532	893.8	1268.2
x1 = 0.3371	899.7	1269.2
x1 = 0.4416	900.9	1274.6
x1 = 0.5755	906.4	1278
x1 = 0.7531	913.1	1284
x1 = 1	924.7	1290.4

CC(CC(C)(C)C)CP(=O)(O)CC(C)CC(C)(C)C (stereo unspecified) [bis-(2,4,4-trimethylpentyl) phosphinic acid] + c1ccccc1
[2]
Settings	mass density [kg/m3]	speed of sound [m/s]
x1 = 0.0666	886.8	1252.2
x1 = 0.109	891.9	1255.2
x1 = 0.1599	895.6	1258.1
x1 = 0.2222	901.1	1259.1
x1 = 0.2999	904.9	1261.3
x1 = 0.3999	908.4	1263.2
x1 = 0.5332	912.3	1266.8
x1 = 0.7199	915.3	1274.3
x1 = 1	924.7	1290.4

Cc1ccccc1 [toluene]
[1]
Settings	mass density [kg/m3]	speed of sound [m/s]
–	866.7	1271.9

Cc1ccccc1 [toluene] + CC(CC(C)(C)C)CP(=O)(O)CC(C)CC(C)(C)C
[2], x2 = 0
Settings	mass density [kg/m3]	speed of sound [m/s]
–	866.7	1271.9
